Assay results published in patent publication US11053204B2, “Pyrimidinyloxy benzene derivatives as herbicides” (FMC Corporation, priority 2015, dated 2021).

What was measured:
Format in all cases: in vivo
rice (Oryza sativa) = assay: Test B flooded paddy test, plant response rating; conditions: 250 g ai/ha; Flood; scale of 0 to 100 where 0 is no effect and 100 is complete control; 13 to 15 days
Excerpt: (§1) At time of treatment, test pots were flooded to 3 cm above the soil surface, treated by application of test compounds directly to the paddy water, and then maintained at that water depth for the duration of the test. Treated plants and controls were maintained in a greenhouse for 13 to 15 days, after which time all species were compared to controls and visually evaluated. […] A dash (-) response means no test result.

[1] = tested on: ducksalad (Heteranthera limosa); assay: Test B flooded paddy test, plant response rating; conditions: 250 g ai/ha; Flood; scale of 0 to 100 where 0 is no effect and 100 is complete control; 13 to 15 days
Excerpt: as §1

[2] = tested on: barnyardgrass (Echinochloa crus-galli); assay: Test B flooded paddy test, plant response rating; conditions: 250 g ai/ha; Flood; scale of 0 to 100 where 0 is no effect and 100 is complete control; 13 to 15 days
Excerpt: as §1

[3] = tested on: sedge, umbrella (small-flower umbrella sedge, Cyperus difformis); assay: Test B flooded paddy test, plant response rating; conditions: 250 g ai/ha; Flood; scale of 0 to 100 where 0 is no effect and 100 is complete control; 13 to 15 days
Excerpt: as §1

kochia (Kochia scoparia) [4] = assay: Test A postemergence, visual injury rating; conditions: 0 is no effect, 100 is complete control; for Kochia plant response rating: 0 to 100 scale, approximately 10 days
Excerpt: (§2) Seeds of plant species selected from barnyardgrass (Echinochloa crus-galli), kochia (Kochia scoparia), ragweed (common ragweed, Ambrosia elatior), Italian ryegrass (Lolium multiflorum), large (Lg) crabgrass (Digitaria sanguinalis), giant foxtail (Setaria faberii), morningglory (Ipomoea spp.), pigweed (Amaranthus retroflexus), velvetleaf (Abutilon theophrasti), wheat (Triticum aestivum), and corn (Zea mays) were planted into a blend of loam soil and sand and treated preemergence with a directed soil spray using test chemicals formulated in a non-phytotoxic solvent mixture which included a surfactant.
(§3) At the same time, plants selected from these crop and weed species and also blackgrass (Alopecurus myosuroides), and galium (catchweed bedstraw, Galium aparine) were planted in pots containing the same blend of loam soil and sand and treated with postemergence applications of test chemicals formulated in the same manner. Plants ranged in height from 2 to 10 cm and were in the one- to two-leaf stage for the postemergence treatment. Treated plants and untreated controls were maintained in a greenhouse for approximately 10 days, after which time all treated plants were compared to untreated controls and visually evaluated for injury. Plant response ratings, summarized in Table A, are based on a 0 to 100 scale where 0 is no effect and 100 is complete control. A dash (-) response means no test result.

corn (Zea mays) = assay: Test A postemergence, visual injury rating; conditions: 0 is no effect, 100 is complete control; for Corn plant response rating: 0 to 100 scale, approximately 10 days
Excerpt: as §2, §3

[5] = tested on: blackgrass (Alopecurus myosuroides); assay: Test A postemergence, visual injury rating; conditions: 0 is no effect, 100 is complete control; for Blackgrass plant response rating: 0 to 100 scale, approximately 10 days
Excerpt: as §2, §3

[6] = tested on: Italian ryegrass (Lolium multiflorum); assay: Test A postemergence, visual injury rating; conditions: 0 is no effect, 100 is complete control; for Ryegrass, Italian plant response rating: 0 to 100 scale, approximately 10 days
Excerpt: as §2, §3

[7] = tested on: galium (catchweed bedstraw, Galium aparine); assay: Test A postemergence, visual injury rating; conditions: 0 is no effect, 100 is complete control; for Galium plant response rating: 0 to 100 scale, approximately 10 days
Excerpt: as §2, §3

[8] = tested on: wheat (Triticum aestivum); assay: Test A postemergence, visual injury rating; conditions: 0 is no effect, 100 is complete control; for Wheat plant response rating: 0 to 100 scale, approximately 10 days
Excerpt: as §2, §3

[9] = tested on: pigweed (Amaranthus retroflexus); assay: Test A postemergence, visual injury rating; conditions: 0 is no effect, 100 is complete control; for Pigweed plant response rating: 0 to 100 scale, approximately 10 days
Excerpt: as §2, §3

[10] = tested on: giant foxtail (Setaria faberii); assay: Test A postemergence, visual injury rating; conditions: 0 is no effect, 100 is complete control; for Foxtail, Giant plant response rating: 0 to 100 scale, approximately 10 days
Excerpt: as §2, §3

[11] = tested on: barnyardgrass (Echinochloa crus-galli); assay: Test A postemergence, visual injury rating; conditions: 0 is no effect, 100 is complete control; for Barnyardgrass plant response rating: 0 to 100 scale, approximately 10 days
Excerpt: as §2, §3

[12] = tested on: ragweed (common ragweed, Ambrosia elatior); assay: Test A postemergence, visual injury rating; conditions: 0 is no effect, 100 is complete control; for Ragweed plant response rating: 0 to 100 scale, approximately 10 days
Excerpt: as §2, §3

kochia (Kochia scoparia) [13] = assay: Test A preemergence, visual injury rating
Procedure, shortened: (§4)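 Injury scores run from 0, no effect, to 100, complete control, judged by eye against untreated plants roughly 10 days after treatment. Chemicals carried a surfactant in a non-phytotoxic solvent and went onto loam–sand soil preemergence or onto one- to two-leaf seedlings postemergence.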

[14] = tested on: Italian ryegrass (Lolium multiflorum); assay: Test A preemergence, visual injury rating
Procedure, shortened: as §4

[15] = tested on: pigweed (Amaranthus retroflexus); assay: Test A preemergence, visual injury rating
Procedure, shortened: as §4

[16] = tested on: giant foxtail (Setaria faberii); assay: Test A preemergence, visual injury rating
Procedure, shortened: as §4

[17] = tested on: barnyardgrass (Echinochloa crus-galli); assay: Test A preemergence, visual injury rating; conditions: for Barnyardgrass plant response rating: 0 to 100 scale (0 no effect, 100 complete control)
Procedure, shortened: as §4

[18] = tested on: ragweed (common ragweed, Ambrosia elatior); assay: Test A preemergence, visual injury rating
Procedure, shortened: as §4

[19] = 31 g ai/ha, 0 to 100 scale, 0 no effect, 100 complete control
[20] = 125 g ai/ha, 0 to 100 scale (0 no effect, 100 complete control)
[21] = 500 g ai/ha, 0 to 100 scale (0 no effect, 100 complete control)

**Q.** With `CC(=NOC(C)C)c1c(Br)cccc1Oc1ncc(Cl)cn1` [Compound 105] as the molecule, how does the “Plant response rating, Rice” value (rice (Oryza sativa)) read?
**A.** 0

**Q.** And the “Plant response rating, Ducksalad” value [1]?
**A.** 40

**Q.** And the “Plant response rating, Barnyardgrass” value [2]?
**A.** 0

**Q.** What about the “Plant response rating, Sedge, Umbrella” value [3] of the same molecule?
**A.** 0

**Q.** What about the “Kochia plant response rating” value (kochia (Kochia scoparia) [4]; 31 g ai/ha) of the same molecule?
**A.** 0

**Q.** And the “Kochia plant response rating” value (kochia (Kochia scoparia) [4]; 125 g ai/ha)?
**A.** 10

**Q.** And the “Corn plant response rating” value (corn (Zea mays); 31 g ai/ha)?
**A.** 0

**Q.** What about the “Corn plant response rating” value (corn (Zea mays); 125 g ai/ha) of the same molecule?
**A.** 0

**Q.** And the “Blackgrass plant response rating” value ([5]; 31 g ai/ha)?
**A.** 0

**Q.** And the “Blackgrass plant response rating” value ([5]; 125 g ai/ha)?
**A.** 10

**Q.** And the “Ryegrass, Italian plant response rating” value ([6]; 31 g ai/ha)?
**A.** 0

**Q.** What about the “Ryegrass, Italian plant response rating” value ([6]; 125 g ai/ha) of the same molecule?
**A.** 0

**Q.** And the “Galium plant response rating” value ([7]; 31 g ai/ha)?
**A.** 10

**Q.** What about the “Galium plant response rating” value ([7]; 125 g ai/ha) of the same molecule?
**A.** 20

**Q.** What about the “Wheat plant response rating” value ([8]; 31 g ai/ha) of the same molecule?
**A.** 0

**Q.** What about the “Wheat plant response rating” value ([8]; 125 g ai/ha) of the same molecule?
**A.** 0

**Q.** What about the “Pigweed plant response rating” value ([9]; 31 g ai/ha) of the same molecule?
**A.** 10

**Q.** And the “Pigweed plant response rating” value ([9]; 125 g ai/ha)?
**A.** 30

**Q.** And the “Foxtail, Giant plant response rating” value ([10]; 31 g ai/ha)?
**A.** 0

**Q.** What about the “Foxtail, Giant plant response rating” value ([10]; 125 g ai/ha) of the same molecule?
**A.** 0

**Q.** And the “Barnyardgrass plant response rating” value ([11]; 31 g ai/ha)?
**A.** 0

**Q.** What about the “Barnyardgrass plant response rating” value ([11]; 125 g ai/ha) of the same molecule?
**A.** 0

**Q.** What about the “Ragweed plant response rating” value ([12]; 31 g ai/ha) of the same molecule?
**A.** 0

**Q.** And the “Ragweed plant response rating” value ([12]; 125 g ai/ha)?
**A.** 0

**Q.** What about the “Plant response rating, Kochia” value (kochia (Kochia scoparia) [13]; [19]) of the same molecule?
**A.** 0

**Q.** And the “Plant response rating, Kochia” value (kochia (Kochia scoparia) [13]; [20])?
**A.** 0

**Q.** And the “Plant response rating, Ryegrass, Italian” value [14, 19]?
**A.** 0

**Q.** What about the “Plant response rating, Ryegrass, Italian” value [14, 20] of the same molecule?
**A.** 0

**Q.** What about the “Plant response rating, Pigweed” value [15, 19] of the same molecule?
**A.** 0

**Q.** What about the “Plant response rating, Pigweed” value [15, 20] of the same molecule?
**A.** 20

**Q.** And the “Plant response rating, Foxtail, Giant” value [16, 19]?
**A.** 0

**Q.** And the “Plant response rating, Foxtail, Giant” value [16, 20]?
**A.** 20

**Q.** And the “Plant response rating, Barnyardgrass” value [17, 19]?
**A.** 0

**Q.** And the “Barnyardgrass plant response rating” value ([17]; 125 g ai/ha)?
**A.** 30

**Q.** What about the “Plant response rating, Ragweed” value [18, 19] of the same molecule?
**A.** 0

**Q.** What about the “Plant response rating, Ragweed” value [18, 20] of the same molecule?
**A.** 0

**Q.** `O=C(OC1CCC1)c1c(Br)cccc1Oc1ncc(Cl)cn1` [Compound 78] was tested. Which “Plant response rating, Rice” value (rice (Oryza sativa)) did it give?
**A.** 15

**Q.** What about the “Plant response rating, Ducksalad” value [1] of the same molecule?
**A.** 70

**Q.** And the “Plant response rating, Barnyardgrass” value [2]?
**A.** 20

**Q.** What about the “Plant response rating, Sedge, Umbrella” value [3] of the same molecule?
**A.** 80

**Q.** And the “Kochia plant response rating” value (kochia (Kochia scoparia) [4]; 125 g ai/ha)?
**A.** 70

**Q.** What about the “Kochia plant response rating (0 to 100 scale)” value (kochia (Kochia scoparia) [4]; 500 g ai/ha) of the same molecule?
**A.** 100

**Q.** What about the “Corn plant response rating (0 to 100 scale)” value (corn (Zea mays); 125 g ai/ha) of the same molecule?
**A.** 40

**Q.** And the “Corn plant response rating (0 to 100 scale)” value (corn (Zea mays); 500 g ai/ha)?
**A.** 60

**Q.** What about the “Blackgrass plant response rating (0 to 100 scale)” value ([5]; 125 g ai/ha) of the same molecule?
**A.** 20

**Q.** And the “Blackgrass plant response rating (0 to 100 scale)” value ([5]; 500 g ai/ha)?
**A.** 60

**Q.** What about the “Ryegrass, Italian plant response rating” value ([6]; 125 g ai/ha) of the same molecule?
**A.** 0

**Q.** What about the “Ryegrass, Italian plant response rating (0 to 100 scale)” value ([6]; 500 g ai/ha) of the same molecule?
**A.** 30

**Q.** And the “Galium plant response rating (0 to 100 scale)” value ([7]; 125 g ai/ha)?
**A.** 70

**Q.** And the “Galium plant response rating (0 to 100 scale)” value ([7]; 500 g ai/ha)?
**A.** 100

**Q.** What about the “Wheat plant response rating” value ([8]; 125 g ai/ha) of the same molecule?
**A.** 20

**Q.** What about the “Wheat plant response rating (0 to 100 scale)” value ([8]; 500 g ai/ha) of the same molecule?
**A.** 30

**Q.** And the “Pigweed plant response rating” value ([9]; 125 g ai/ha)?
**A.** 80

**Q.** And the “Pigweed plant response rating (0 to 100 scale)” value ([9]; 500 g ai/ha)?
**A.** 90

**Q.** What about the “Foxtail, Giant plant response rating (0 to 100 scale)” value ([10]; 125 g ai/ha) of the same molecule?
**A.** 50

**Q.** What about the “Foxtail, Giant plant response rating (0 to 100 scale)” value ([10]; 500 g ai/ha) of the same molecule?
**A.** 80

**Q.** What about the “Barnyardgrass plant response rating (0 to 100 scale)” value ([11]; 125 g ai/ha) of the same molecule?
**A.** 60

**Q.** And the “Barnyardgrass plant response rating (0 to 100 scale)” value ([11]; 500 g ai/ha)?
**A.** 100

**Q.** And the “Ragweed plant response rating” value ([12]; 125 g ai/ha)?
**A.** 0

**Q.** And the “Ragweed plant response rating (0 to 100 scale)” value ([12]; 500 g ai/ha)?
**A.** 30

**Q.** And the “Kochia plant response rating” value (kochia (Kochia scoparia) [13]; [20])?
**A.** 20

**Q.** And the “Kochia plant response rating” value (kochia (Kochia scoparia) [13]; [21])?
**A.** 60

**Q.** And the “Ryegrass, Italian plant response rating” value [14, 20]?
**A.** 0

**Q.** And the “Ryegrass, Italian plant response rating” value [14, 21]?
**A.** 20

**Q.** And the “Pigweed plant response rating” value [15, 20]?
**A.** 80

**Q.** What about the “Pigweed plant response rating” value [15, 21] of the same molecule?
**A.** 100

**Q.** And the “Foxtail, Giant plant response rating” value [16, 20]?
**A.** 90

**Q.** What about the “Foxtail, Giant plant response rating” value [16, 21] of the same molecule?
**A.** 100

**Q.** And the “Barnyardgrass plant response rating” value ([17]; 125 g ai/ha)?
**A.** 60

**Q.** What about the “Barnyardgrass plant response rating” value ([17]; 500 g ai/ha) of the same molecule?
**A.** 100

**Q.** What about the “Ragweed plant response rating” value [18, 20] of the same molecule?
**A.** 0

**Q.** And the “Ragweed plant response rating” value [18, 21]?
**A.** 0
